≈ marks a conversion by molar mass, not a printed value. Where two headings read alike, the source gives them in different places.
How the values were obtained:
[1] = Phase I metabolic stability in mouse liver microsomes; type: in vitro ADME; conditions: for remaining at 1 h, 1 µM: mouse, liver microsomes, pH 7.4, 1 h; for stability in mouse liver microsomes: n = 3
Protocol: Stability studies were conducted in mouse liver microsomes, mouse liver tissue homogenate, and CD1 mouse plasma as previously described with minor modifications ([54][–][56]). Briefly, for Phase I mouse liver microsome stability, reactions were carried out with 200 mM potassium phosphate buffer, pH 7.4, with or without an NADPH-regenerating system (1.3 mM NADPH, 3.3 mM glucose 6-phosphate, 3.3 mM MgCl2, 0.4 U/mL glucose-6-phosphate dehydrogenase, and 50 µM sodium citrate). Reactions, in triplicate, were initiated by the addition of liver microsomes to the incubation mixture (compound final concentration was 1 µM; 0.2 mg/mL microsomes) and incubated at 37°C for the desired incubation time. For liver stability, the tissue homogenate was prepared by washing tissues with diluted 10-fold 0.1 M potassium phosphate buffer and homogenized using a probe sonicator over ice. To evaluate the stability of the drugs over time, each of the crude homogenates was aliquoted to 1 mL and then spiked with a final assay concentration of 10 µM of each drug, followed by incubation in an orbital shaker at 37°C for 1 h (in triplicate). For plasma stability, 1 mL of plasma was spiked with 10 µM of each drug, followed by incubation in an orbital shaker at 37°C for 1 h (in triplicate). Samples from each metabolism study were quenched with 3× volume of acetonitrile containing internal standard (losartan: 0.5 µM) at the desired incubation times. […] Samples were vortex-mixed for 30 s and centrifuged at 10,000 × g for 10 min at 4°C. Compound disappearance over time was monitored using a Dionex ultra-high-performance liquid chromatography system consisting of an analytical pump and an autosampler coupled with Q Exactive Focus orbitrap mass spectrometer (Thermo Fisher Scientific Inc., Waltham MA). […] The mobile phase used was composed of 0.1% formic acid in water and 0.1% formic acid in acetonitrile with gradient elution. The total run time for each analyte was 5 min.
The mass spectrometer was operated with a HESI ion source in positive ionization mode where compounds were identified in the full scan mode (from m/z 75.00–1125.00) and controlled by the Xcalibur software 4.0.27.13 (Thermo Scientific). Data were acquired using Xcalibur software. Drugs were identified in the full-scan mode (from m/z 75.00 to 1125.00) by comparing t = 0 samples with t = 30 or 60 min samples, and structures were proposed based on the accurate mass information. The percentage of compound remaining for pantothenamides 1, 6, and 7 was determined from the analyte/internal standard (IS) area ratios obtained at t = 30 or 60 min relative to the mean ratios obtained at t = 0 min and calculated using equation 1:
% Remaining=(Peak area of Analyte/Preak area of ISat t=30 or 60 min/MeanPeak area of Analyte/Peak area of ISat t=0 min)×100

[2] = system: UPEC strain CFT073; design: method as in PMID 37107054; conditions: 1 combined with BAP; cited from earlier work
[3] = system: UPEC strain CFT073; assay: Checkerboard analysis of BAP with pantothenamide in pooled human urine; type: cell-based, Escherichia coli; conditions: combination with BAP, UPEC in urine batch B
Protocol: As previously described ([7]), an inoculum of 10^5 CFU/mL CFT073 was prepared in pooled human urine Batch B (described above). Cells (100 µL) were added 1:1 to a 96-well plate containing varied combinations of BAP and 1 or N5-Pan analog at 2× the final concentration (100 µL). The OD600 was recorded at 37°C for 16 h with intermittent shaking. Fractional growth was calculated relative to the no drug control at 6 h. Experiments were performed in biological triplicate.
Fractional inhibitory concentration indices (FICI) were determined as previously described ([7], [8]) and calculated using equation 2:
FICI=FICA+FICB=([A]/MICA)+([B]/MICB)
MICA and MICB are the lowest [A] or [B], respectively, required to suppress 90% of the bacterial growth. FICA was calculated as [A] in the presence of B for a combination resulting in <10% growth, divided by MICA. FICB was calculated as [B] in the presence of A for a combination resulting in <10% growth, divided by MICB. Isobolograms were prepared from the checkerboard analysis by plotting FIC for BAP and 1 or 6 over the range of BAP concentrations tested in combination with 1 or 6. Points falling below the line of additivity indicate potentiation of activity. See Fig. S6 for the visual representation of the method of assembling isobolograms.

[4] = system: UPEC strain CFT073; design: method as in PMID 37107054; conditions: cited from earlier work
[5] = system: serum pantetheinases; conditions: cited from earlier work
[6] = system: mammalian cells; conditions: cited from earlier work

**Q.** What does the source list for CCCCCNC(=O)CCNC(=O)[C@H](O)C(C)(C)CO [compound 1, N-pentylpantothenamide, reference compound]?
**A.** remaining at 1 h, 1 µM ([1]; with NADPH, 1 µM compound, 0.2 mg/mL microsomes, read-out: % remaining in mouse liver microsomes, presence of NADPH): 90%; remaining at 1 h, 1 µM ([1]; without NADPH, 1 µM compound, 0.2 mg/mL microsomes, read-out: % remaining in mouse liver microsomes, absence of NADPH): 93%; stability in mouse liver microsomes [1]: good stability; interaction with BAP against UPEC in urine [2]: synergy; effect of BAP on activity (isobologram analysis) [3]: potentiates the activity; fold drop in potency in urine versus MOPS-glycerol ([4]; UPEC CFT073): ≥ 30 fold; MIC in commercial pooled human urine ([4]; UPEC, commercial pooled human urine): 156 µM (≈ 45 µg/mL)

**Q.** For CCCCCNC(=O)CNC(=O)[C@H](O)C(C)(C)CO [compound 6, N5-α-pantothenamide], which “% remaining in mouse liver microsomes, presence of NADPH” value ([1]; 1 h, with NADPH, 1 µM compound, 0.2 mg/mL microsomes) is on record?
**A.** The value was “no degradation”.

**Q.** And the “% remaining in mouse liver microsomes, absence of NADPH” value ([1]; 1 h, without NADPH, 1 µM compound, 0.2 mg/mL microsomes)?
**A.** The value was “no degradation”.

**Q.** What about the “stability in mouse liver microsomes” value [1] of the same compound?
**A.** The value was “good stability”.

**Q.** What about the “effect of BAP on activity (isobologram analysis)” value [3] of the same compound?
**A.** The value was “potentiates the activity”.

**Q.** And the “Fractional inhibitory concentration index (FICI)” value ([3]; range across experiments)?
**A.** The value was 0.5–1.25.

**Q.** What about the “stability in the presence of serum pantetheinases” value [5] of the same compound?
**A.** The value was “stable”.

**Q.** What about the “toxicity to mammalian cells” value [6] of the same compound?
**A.** Its value is “non-toxic”.

Reference: article PMC12323621, “Exploring the antimicrobial activity of pantothenamides against uropathogenic Escherichia coli” (Microbiology Spectrum, 2025)
